According to ChEMBL document CHEMBL5724914, “Linking interpersonal differences in gut microbiota composition and drug biotransformation activity” (2024):

Test: (§1) The drug is tested on WLS-007 corresponding to human gut metagenome with ENA study accession number: PRJEB37062 and ENA sample accession number: ERS12561742 for biotransformation under anaerobic condition. The drug concentrations were measured over 9 timepoints collected between 0 and 24 hours of incubation by liquid-chromatography-coupled mass spectrometry (LC–MS)
Details: 2 µM
Note: call rule not given here.

| SMILES | Bacterial Biotransformation |
| --- | --- |
| Nc1c2c(nc3ccccc13)CCCC2 [TACRINE] | Compound NOT metabolized |
| CC(Oc1c(Cl)cccc1Cl)C1=NCCN1 (stereo not given) [LOFEXIDINE] | Compound metabolized |
| O=c1[nH]c2ccccc2n1C1CCN(CCCC(c2ccc(F)cc2)c2ccc(F)cc2)CC1 [PIMOZIDE] | Compound metabolized |
| CN1CC(=O)N2[C@H](c3ccc4c(c3)OCO4)c3[nH]c4ccccc4c3C[C@@H]2C1=O | Compound metabolized |

Details: human gut metagenome, 24 h, 2 µM

| SMILES | Bacterial Biotransformation |
| --- | --- |
| Nc1c2c(nc3ccccc13)CCCC2 [TACRINE] | Compound metabolized |
| CC(Oc1c(Cl)cccc1Cl)C1=NCCN1 (stereo not given) [LOFEXIDINE] | Compound NOT metabolized |
| O=c1[nH]c2ccccc2n1C1CCN(CCCC(c2ccc(F)cc2)c2ccc(F)cc2)CC1 [PIMOZIDE] | Compound NOT metabolized |
| CN1CC(=O)N2[C@H](c3ccc4c(c3)OCO4)c3[nH]c4ccccc4c3C[C@@H]2C1=O | Compound NOT metabolized |

Test: as §1, with “Z-016” for “WLS-007”, “mouse” for “human”, “ERS12561815” for “ERS12561742”
Details: 2 µM

| SMILES | Bacterial Biotransformation |
| --- | --- |
| Nc1c2c(nc3ccccc13)CCCC2 [TACRINE] | Compound NOT metabolized |
| CC(Oc1c(Cl)cccc1Cl)C1=NCCN1 (stereo not given) [LOFEXIDINE] | Compound NOT metabolized |
| O=c1[nH]c2ccccc2n1C1CCN(CCCC(c2ccc(F)cc2)c2ccc(F)cc2)CC1 [PIMOZIDE] | Compound metabolized |
| CN1CC(=O)N2[C@H](c3ccc4c(c3)OCO4)c3[nH]c4ccccc4c3C[C@@H]2C1=O | Compound metabolized |

Details: human gut metagenome, 24 h, 2 µM
Remark: another data set of the same source

| SMILES | Bacterial Biotransformation |
| --- | --- |
| Nc1c2c(nc3ccccc13)CCCC2 [TACRINE] | Compound NOT metabolized |
| CC(Oc1c(Cl)cccc1Cl)C1=NCCN1 (stereo not given) [LOFEXIDINE] | Compound NOT metabolized |
| O=c1[nH]c2ccccc2n1C1CCN(CCCC(c2ccc(F)cc2)c2ccc(F)cc2)CC1 [PIMOZIDE] | Compound metabolized |
| CN1CC(=O)N2[C@H](c3ccc4c(c3)OCO4)c3[nH]c4ccccc4c3C[C@@H]2C1=O | Compound metabolized |

Details: human gut metagenome, 24 h, 2 µM
Remark: another data set of the same source

| SMILES | Bacterial Biotransformation |
| --- | --- |
| Nc1c2c(nc3ccccc13)CCCC2 [TACRINE] | Compound NOT metabolized |
| CC(Oc1c(Cl)cccc1Cl)C1=NCCN1 (stereo not given) [LOFEXIDINE] | Compound NOT metabolized |
| O=c1[nH]c2ccccc2n1C1CCN(CCCC(c2ccc(F)cc2)c2ccc(F)cc2)CC1 [PIMOZIDE] | Compound NOT metabolized |
| CN1CC(=O)N2[C@H](c3ccc4c(c3)OCO4)c3[nH]c4ccccc4c3C[C@@H]2C1=O | Compound NOT metabolized |

Details: human gut metagenome, 24 h, 2 µM
Remark: another data set of the same source

| SMILES | Bacterial Biotransformation |
| --- | --- |
| Nc1c2c(nc3ccccc13)CCCC2 [TACRINE] | Compound NOT metabolized |
| CC(Oc1c(Cl)cccc1Cl)C1=NCCN1 (stereo not given) [LOFEXIDINE] | Compound NOT metabolized |
| O=c1[nH]c2ccccc2n1C1CCN(CCCC(c2ccc(F)cc2)c2ccc(F)cc2)CC1 [PIMOZIDE] | Compound metabolized |
| CN1CC(=O)N2[C@H](c3ccc4c(c3)OCO4)c3[nH]c4ccccc4c3C[C@@H]2C1=O | Compound metabolized |

Details: human gut metagenome, 24 h, 2 µM
Remark: another data set of the same source

| SMILES | Bacterial Biotransformation |
| --- | --- |
| Nc1c2c(nc3ccccc13)CCCC2 [TACRINE] | Compound NOT metabolized |
| CC(Oc1c(Cl)cccc1Cl)C1=NCCN1 (stereo not given) [LOFEXIDINE] | Compound metabolized |
| O=c1[nH]c2ccccc2n1C1CCN(CCCC(c2ccc(F)cc2)c2ccc(F)cc2)CC1 [PIMOZIDE] | Compound NOT metabolized |
| CN1CC(=O)N2[C@H](c3ccc4c(c3)OCO4)c3[nH]c4ccccc4c3C[C@@H]2C1=O | Compound NOT metabolized |

Test: as §1, with “Z-017” for “WLS-007”, “mouse” for “human”, “ERS12561816” for “ERS12561742”
Details: 2 µM

| SMILES | Bacterial Biotransformation |
| --- | --- |
| Nc1c2c(nc3ccccc13)CCCC2 [TACRINE] | Compound NOT metabolized |
| CC(Oc1c(Cl)cccc1Cl)C1=NCCN1 (stereo not given) [LOFEXIDINE] | Compound NOT metabolized |
| O=c1[nH]c2ccccc2n1C1CCN(CCCC(c2ccc(F)cc2)c2ccc(F)cc2)CC1 [PIMOZIDE] | Compound metabolized |
| CN1CC(=O)N2[C@H](c3ccc4c(c3)OCO4)c3[nH]c4ccccc4c3C[C@@H]2C1=O | Compound NOT metabolized |

Details: human gut metagenome, 24 h, 2 µM
Remark: another data set of the same source

| SMILES | Bacterial Biotransformation |
| --- | --- |
| Nc1c2c(nc3ccccc13)CCCC2 [TACRINE] | Compound metabolized |
| CC(Oc1c(Cl)cccc1Cl)C1=NCCN1 (stereo not given) [LOFEXIDINE] | Compound metabolized |
| O=c1[nH]c2ccccc2n1C1CCN(CCCC(c2ccc(F)cc2)c2ccc(F)cc2)CC1 [PIMOZIDE] | Compound metabolized |
| CN1CC(=O)N2[C@H](c3ccc4c(c3)OCO4)c3[nH]c4ccccc4c3C[C@@H]2C1=O | Compound metabolized |

Test: as §1, with “WLS-310” for “WLS-007”, “ERS12561785” for “ERS12561742”
Details: 2 µM

| SMILES | Bacterial Biotransformation |
| --- | --- |
| Nc1c2c(nc3ccccc13)CCCC2 [TACRINE] | Compound metabolized |
| CC(Oc1c(Cl)cccc1Cl)C1=NCCN1 (stereo not given) [LOFEXIDINE] | Compound metabolized |
| O=c1[nH]c2ccccc2n1C1CCN(CCCC(c2ccc(F)cc2)c2ccc(F)cc2)CC1 [PIMOZIDE] | Compound metabolized |
| CN1CC(=O)N2[C@H](c3ccc4c(c3)OCO4)c3[nH]c4ccccc4c3C[C@@H]2C1=O | Compound metabolized |

Test: as §1, with “Z-013” for “WLS-007”, “rabbit” for “human”, “ERS12561813” for “ERS12561742”
Details: 2 µM

| SMILES | Bacterial Biotransformation |
| --- | --- |
| Nc1c2c(nc3ccccc13)CCCC2 [TACRINE] | Compound NOT metabolized |
| CC(Oc1c(Cl)cccc1Cl)C1=NCCN1 (stereo not given) [LOFEXIDINE] | Compound NOT metabolized |
| O=c1[nH]c2ccccc2n1C1CCN(CCCC(c2ccc(F)cc2)c2ccc(F)cc2)CC1 [PIMOZIDE] | Compound metabolized |
| CN1CC(=O)N2[C@H](c3ccc4c(c3)OCO4)c3[nH]c4ccccc4c3C[C@@H]2C1=O | Compound NOT metabolized |

Details: human gut metagenome, 24 h, 2 µM
Remark: another data set of the same source

| SMILES | Bacterial Biotransformation |
| --- | --- |
| Nc1c2c(nc3ccccc13)CCCC2 [TACRINE] | Compound metabolized |
| CC(Oc1c(Cl)cccc1Cl)C1=NCCN1 (stereo not given) [LOFEXIDINE] | Compound metabolized |
| O=c1[nH]c2ccccc2n1C1CCN(CCCC(c2ccc(F)cc2)c2ccc(F)cc2)CC1 [PIMOZIDE] | Compound metabolized |
| CN1CC(=O)N2[C@H](c3ccc4c(c3)OCO4)c3[nH]c4ccccc4c3C[C@@H]2C1=O | Compound metabolized |

Test: as §1, with “WLS-073” for “WLS-007”, “ERS12561749” for “ERS12561742”
Details: 2 µM

| SMILES | Bacterial Biotransformation |
| --- | --- |
| Nc1c2c(nc3ccccc13)CCCC2 [TACRINE] | Compound NOT metabolized |
| CC(Oc1c(Cl)cccc1Cl)C1=NCCN1 (stereo not given) [LOFEXIDINE] | Compound NOT metabolized |
| O=c1[nH]c2ccccc2n1C1CCN(CCCC(c2ccc(F)cc2)c2ccc(F)cc2)CC1 [PIMOZIDE] | Compound metabolized |
| CN1CC(=O)N2[C@H](c3ccc4c(c3)OCO4)c3[nH]c4ccccc4c3C[C@@H]2C1=O | Compound NOT metabolized |

Test: as §1, with “WLS-038” for “WLS-007”, “ERS12561745” for “ERS12561742”
Details: 2 µM

| SMILES | Bacterial Biotransformation |
| --- | --- |
| Nc1c2c(nc3ccccc13)CCCC2 [TACRINE] | Compound NOT metabolized |
| CC(Oc1c(Cl)cccc1Cl)C1=NCCN1 (stereo not given) [LOFEXIDINE] | Compound NOT metabolized |
| O=c1[nH]c2ccccc2n1C1CCN(CCCC(c2ccc(F)cc2)c2ccc(F)cc2)CC1 [PIMOZIDE] | Compound metabolized |
| CN1CC(=O)N2[C@H](c3ccc4c(c3)OCO4)c3[nH]c4ccccc4c3C[C@@H]2C1=O | Compound metabolized |

Test: as §1, with “Z-008” for “WLS-007”, “to” for “to human gut”, “ERS12561808” for “ERS12561742”
Details: 2 µM

| SMILES | Bacterial Biotransformation |
| --- | --- |
| Nc1c2c(nc3ccccc13)CCCC2 [TACRINE] | Compound NOT metabolized |
| CC(Oc1c(Cl)cccc1Cl)C1=NCCN1 (stereo not given) [LOFEXIDINE] | Compound NOT metabolized |
| O=c1[nH]c2ccccc2n1C1CCN(CCCC(c2ccc(F)cc2)c2ccc(F)cc2)CC1 [PIMOZIDE] | Compound metabolized |
| CN1CC(=O)N2[C@H](c3ccc4c(c3)OCO4)c3[nH]c4ccccc4c3C[C@@H]2C1=O | Compound NOT metabolized |

Details: human gut metagenome, 24 h, 2 µM
Remark: another data set of the same source

| SMILES | Bacterial Biotransformation |
| --- | --- |
| Nc1c2c(nc3ccccc13)CCCC2 [TACRINE] | Compound NOT metabolized |
| CC(Oc1c(Cl)cccc1Cl)C1=NCCN1 (stereo not given) [LOFEXIDINE] | Compound NOT metabolized |
| O=c1[nH]c2ccccc2n1C1CCN(CCCC(c2ccc(F)cc2)c2ccc(F)cc2)CC1 [PIMOZIDE] | Compound metabolized |
| CN1CC(=O)N2[C@H](c3ccc4c(c3)OCO4)c3[nH]c4ccccc4c3C[C@@H]2C1=O | Compound metabolized |

Test: as §1, with “Z-019” for “WLS-007”, “rat” for “human”, “ERS12561818” for “ERS12561742”
Details: 2 µM

| SMILES | Bacterial Biotransformation |
| --- | --- |
| Nc1c2c(nc3ccccc13)CCCC2 [TACRINE] | Compound NOT metabolized |
| CC(Oc1c(Cl)cccc1Cl)C1=NCCN1 (stereo not given) [LOFEXIDINE] | Compound NOT metabolized |
| O=c1[nH]c2ccccc2n1C1CCN(CCCC(c2ccc(F)cc2)c2ccc(F)cc2)CC1 [PIMOZIDE] | Compound NOT metabolized |
| CN1CC(=O)N2[C@H](c3ccc4c(c3)OCO4)c3[nH]c4ccccc4c3C[C@@H]2C1=O | Compound NOT metabolized |

Test: as §1, with “Z-014” for “WLS-007”, “rat” for “human”, “ERS12561814” for “ERS12561742”
Details: 2 µM

| SMILES | Bacterial Biotransformation |
| --- | --- |
| Nc1c2c(nc3ccccc13)CCCC2 [TACRINE] | Compound NOT metabolized |
| CC(Oc1c(Cl)cccc1Cl)C1=NCCN1 (stereo not given) [LOFEXIDINE] | Compound NOT metabolized |
| O=c1[nH]c2ccccc2n1C1CCN(CCCC(c2ccc(F)cc2)c2ccc(F)cc2)CC1 [PIMOZIDE] | Compound NOT metabolized |
| CN1CC(=O)N2[C@H](c3ccc4c(c3)OCO4)c3[nH]c4ccccc4c3C[C@@H]2C1=O | Compound NOT metabolized |

Test: as §1, with “WLS-220” for “WLS-007”, “ERS12561769” for “ERS12561742”
Details: 2 µM

| SMILES | Bacterial Biotransformation |
| --- | --- |
| Nc1c2c(nc3ccccc13)CCCC2 [TACRINE] | Compound NOT metabolized |
| CC(Oc1c(Cl)cccc1Cl)C1=NCCN1 (stereo not given) [LOFEXIDINE] | Compound NOT metabolized |
| O=c1[nH]c2ccccc2n1C1CCN(CCCC(c2ccc(F)cc2)c2ccc(F)cc2)CC1 [PIMOZIDE] | Compound metabolized |
| CN1CC(=O)N2[C@H](c3ccc4c(c3)OCO4)c3[nH]c4ccccc4c3C[C@@H]2C1=O | Compound metabolized |

Test: as §1, with “WLS-086” for “WLS-007”, “ERS12561752” for “ERS12561742”
Details: 2 µM

| SMILES | Bacterial Biotransformation |
| --- | --- |
| Nc1c2c(nc3ccccc13)CCCC2 [TACRINE] | Compound metabolized |
| CC(Oc1c(Cl)cccc1Cl)C1=NCCN1 (stereo not given) [LOFEXIDINE] | Compound metabolized |
| O=c1[nH]c2ccccc2n1C1CCN(CCCC(c2ccc(F)cc2)c2ccc(F)cc2)CC1 [PIMOZIDE] | Compound metabolized |
| CN1CC(=O)N2[C@H](c3ccc4c(c3)OCO4)c3[nH]c4ccccc4c3C[C@@H]2C1=O | Compound metabolized |
